pIC50: −log10 of the molar value.

For the first experiment, the target named is T1, DPP-IV (Homo sapiens, UniProt P27487).
T1 construct: purchased Enzyme Systems Products SPE-01
T1 sequence (P27487 whole entry, species assumed): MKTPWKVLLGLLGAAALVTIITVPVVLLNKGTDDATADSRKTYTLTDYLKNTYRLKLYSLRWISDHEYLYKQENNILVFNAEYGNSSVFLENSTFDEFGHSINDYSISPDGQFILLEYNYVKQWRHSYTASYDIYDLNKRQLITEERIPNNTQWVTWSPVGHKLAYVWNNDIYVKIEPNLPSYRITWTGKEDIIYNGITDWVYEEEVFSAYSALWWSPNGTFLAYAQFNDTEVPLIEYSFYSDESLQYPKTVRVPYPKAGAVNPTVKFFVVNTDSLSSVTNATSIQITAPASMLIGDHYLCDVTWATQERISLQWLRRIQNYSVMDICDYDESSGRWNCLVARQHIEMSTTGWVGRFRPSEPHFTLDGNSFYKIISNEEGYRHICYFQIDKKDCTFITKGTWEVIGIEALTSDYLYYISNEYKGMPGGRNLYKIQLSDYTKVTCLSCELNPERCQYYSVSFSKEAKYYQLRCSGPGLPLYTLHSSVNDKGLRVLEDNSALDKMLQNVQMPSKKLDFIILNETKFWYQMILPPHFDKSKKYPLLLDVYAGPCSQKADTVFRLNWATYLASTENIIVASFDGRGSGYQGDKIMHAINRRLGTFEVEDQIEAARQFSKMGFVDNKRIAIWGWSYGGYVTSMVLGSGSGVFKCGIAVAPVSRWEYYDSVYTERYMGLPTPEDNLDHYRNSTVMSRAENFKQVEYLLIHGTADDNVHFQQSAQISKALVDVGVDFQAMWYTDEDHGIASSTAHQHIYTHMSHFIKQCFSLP
Nature of the experiment: In vitro assay for dipeptidyl peptidase inhibition. In kind it is biochemical. The conditions noted are these: hydrochloride salts; Gly-Pro-4-methoxy B naphthylamide substrate; overnight at 37° C.; read-out: IC50 (concentration of test compound required for 50% inhibition). The protocol:
150 μL of an enzyme-substrate solution was pipetted into microtiter wells of a polystyrene 96-well plate, and maintained at 4° C. The enzyme-substrate solution comprised 50 μM Gly-Pro-4-methoxy B naphthylamide HCl in 50 mM Tris assay buffer pH 7.3 containing 0.1M sodium chloride, 0.1% (v/v) Triton and 50 μU/mL DPP-IV (Enzyme Systems Products Cat#SPE-01, DPP-IV 5 mU/mL stock). 5 μL/well of compounds of Formula (I) were added, bringing the final compound of Formula (I) concentrations to 3 μM-10 nM per well.
Controls. Enzyme was omitted from four (4) wells, as a reagent blank. 5 μL of 3 mM Diprotin A was added to four wells as a positive quality control, providing a final Diprotin A concentration of 100 μM. To measure total enzyme activity (i.e. a negative control), without the influence of any compounds of Formula (I), 5 μL of distilled water was added to four wells.
The entire assay was incubated overnight (about 14-18 hours) at 37° C.
`N[C@H](C(=O)N1CCCC1)[C@H]1CC[C@H](N2C(=O)c3cccnc3C2=O)CC1` [Example 24, 6-[trans-4-((1S)-1-amino-2-oxo-2-pyrrolidin-1-yl-ethyl)-cyclohexyl]-pyrrolo[3,4-b]pyridine-5,7-dione]: the pIC50 was no less than 7.00.

In the case of `N[C@H](C(=O)N1CCCC1)[C@H]1CC[C@H](NC(=O)[C@@H]2CNC(=O)N2C(=O)OCc2ccccc2)CC1` [Example 9, (5S)-5-[trans-4-((1S)-1-amino-2-oxo-2-pyrrolidin-1-yl-ethyl)-cyclohexylcarbamoyl]-2-oxo-imidazolidine-1-carboxylic acid benzyl ester], the pIC50 is no less than 7.00.

With `N[C@H](C(=O)N1CCCC1)[C@H]1CC[C@H](NC(=O)N2CCC[C@H]2COCc2ccccc2)CC1` [Example 25, 2-benzyloxymethyl-pyrrolidine-1-carboxylic acid [trans-4-((1S)-1-Amino-2-oxo-2-pyrrolidin-1-yl-ethyl)-cyclohexyl]-amide], the pIC50 was no less than 7.00.

For `N[C@H](C(=O)N1CCCC1)[C@H]1CC[C@H](NC(=O)[C@H]2CCC(=O)N2C(=O)OCc2ccccc2)CC1` [Example 15, (2R)-2-[trans-4-(1-(S)-amino-2-oxo-2-pyrrolidin-1-yl-ethyl)-cyclohexylcarbamoyl]-5-oxo-pyrrolidine-1-carboxylic acid benzyl ester], the pIC50 was no less than 7.00.

In the case of `Nc1nccnc1C(=O)N[C@H]1CC[C@H]([C@H](N)C(=O)N2CCC(F)(F)C2)CC1` [Example 32, (S)-3-amino-pyrazine-2-carboxylic acid {trans-4-[1-amino-2-(3,3-difluoro-pyrrolidin-1-yl)-2-oxo-ethyl]-cyclohexyl}-amide], the pIC50 is no less than 7.00.

Turning to `N[C@H](C(=O)N1CCSC1)[C@H]1CC[C@H](N2Cc3ccccc3S2(=O)=O)CC1` [Example 51, (2S)-2-amino-2-[trans-4-(1,1-dioxo-1,3-dihydro-1λ^6-benzo[d]isothiazol-2-yl)-cyclohexyl]-1-thiazolidin-3-yl-ethanone], the pIC50 is no less than 7.00.

As for `Nc1ncccc1C(=O)N[C@H]1CC[C@H]([C@H](N)C(=O)N2CCSC2)CC1` [Example 39, (S)-2-amino-N-[trans-4-(1-amino-2-oxo-2-thiazolidin-3-yl-ethyl)-cyclohexyl]-nicotinamide], the pIC50 was no less than 7.00.

`N[C@H](C(=O)N1CCCC1)[C@H]1CC[C@H](NC(=O)[C@@H]2CCC(=O)N2C(=O)OCc2ccccc2)CC1` [Example 14, (2S)-2-[trans-4-(1-(1S)-amino-2-oxo-2-pyrrolidin-1-yl-ethyl)-cyclohexylcarbamoyl]-5-oxo-pyrrolidine-1-carboxylic acid benzyl ester]: the pIC50 was 6.30 to 7.00.

For the compound `N[C@H](C(=O)N1CCCC1)[C@H]1CC[C@H](N2Cc3ncccc3C2=O)CC1` [Example 42, 6-[trans-4-((1S)-1-amino-2-oxo-2-pyrrolidin-1-yl-ethyl)-cyclohexyl]-6,7-dihydro-pyrrolo[3,4-b]pyridin-5-one], the pIC50 is no less than 7.00.

`CN(C(=O)OCc1ccccc1)C(C)(C)C(=O)N[C@H]1CC[C@H]([C@H](N)C(=O)N2CCCC2)CC1` [Example 17, (S)-{1-[trans-4-(1-amino-2-oxo-2-pyrrolidin-1-yl-ethyl)-cyclohexylcarbamoyl]-1-methyl-ethyl)-methyl-carbamic acid benzyl ester]: the pIC50 is 6.30 to 7.00.

For the compound `N[C@H](C(=O)N1CCCC1)[C@H]1CC[C@@H](NC(=O)[C@H]2COCN2C(=O)OCc2ccccc2)CC1` [Example 5, (4R)-4-[cis-4-((1S)-1-amino-2-oxo-2-pyrrolidin-1-yl-ethyl)-cyclohexylcarbamoyl]-oxazolidine-3-carboxylic acid benzyl ester], the pIC50 was 6.30 to 7.00.

Consider `N[C@H](C(=O)N1CCCC1)[C@H]1CC[C@H](NC(=O)[C@@H]2C[C@@H](O)CN2C(=O)OCc2ccccc2)CC1` [Example 12, (2S,4R)-2-[trans-4-((1S)-1-amino-2-oxo-2-pyrrolidin-1-yl-ethyl)-cyclohexylcarbamoyl]-4-hydroxy-pyrrolidine-1-carboxylic acid benzyl ester], for which the pIC50 was no less than 7.00.

As for `N[C@H](C(=O)N1CCC(F)(F)C1)[C@H]1CC[C@H](N2Cc3ncccc3C2=O)CC1` [Example 45, 6-{trans-4-[(1S)-1-amino-2-(3,3-difluoro-pyrrolidin-1-yl)-2-oxo-ethyl]-cyclohexyl}-6,7-dihydro-pyrrolo[3,4-b]pyridin-5-one], the pIC50 was no less than 7.00.

For `N#C[C@@H]1CCCN1C(=O)[C@@H](N)[C@H]1CC[C@H](NC(=O)c2nccnc2N)CC1` [Example 36, 3-amino-pyrazine-2-carboxylic acid {trans-4-[(1S)-1-amino-2-((2S)-2-cyano-pyrrolidin-1-yl)-2-oxo-ethyl]-cyclohexyl}-amide], the pIC50 was no less than 7.00.

In the case of `N[C@H](C(=O)N1CCSC1)[C@H]1CC[C@H](N2Cc3ncccc3C2=O)CC1` [Example 43, 6-[trans-4-((1S)-1-amino-2-oxo-2-thiazolidin-3-yl-ethyl)-cyclohexyl]-6,7-dihydro-pyrrolo[3,4-b]pyridin-5-one], the pIC50 was no less than 7.00.

Consider `N[C@H](C(=O)N1CCCC1)[C@H]1CC[C@@H](NC(=O)[C@@H]2CNC(=O)N2C(=O)OCc2ccccc2)CC1` [Example 7, (5S)-5-[cis-4-((1S)-1-amino-2-oxo-2-pyrrolidin-1-yl-ethyl)-cyclohexylcarbamoyl]-2-oxo-imidazolidine-1-carboxylic acid benzyl ester], for which the pIC50 was less than 6.30.

For `Cc1nn(C)c(C(=O)N[C@H]2CC[C@H]([C@H](N)C(=O)N3CCCC3)CC2)c1N` [Example 48, (S)-4-amino-2,5-dimethyl-2H-pyrazole-3-carboxylic acid [trans-4-(1-amino-2-oxo-2-pyrrolidin-1-yl-ethyl)-cyclohexyl]-amide], the pIC50 is no less than 7.00.

As for `N[C@H](C(=O)N1CCCC1)[C@H]1CC[C@@H](NC(=O)CNC(=O)c2ccccc2)CC1` [Example 1, N-{[cis-4-((1S)-1-amino-2-oxo-2-pyrrolidin-1-yl-ethyl)-cyclohexylcarbamoyl]-methyl}-benzamide], the pIC50 was less than 6.30.

`N[C@H](C(=O)N1CCCC1)[C@H]1CC[C@@H](NC(=O)[C@@H]2COCN2C(=O)OCc2ccccc2)CC1` [Example 6, (4S)-4-[cis-4-((1S)-1-amino-2-oxo-2-pyrrolidin-1-yl-ethyl)-cyclohexylcarbamoyl]-oxazolidine-3-carboxylic acid benzyl ester]: the pIC50 is less than 6.30.

As to `CN(CC(=O)N[C@H]1CC[C@H]([C@H](N)C(=O)N2CCC(F)(F)C2)CC1)C(=O)OCc1ccccc1` [Example 30, (S)-({trans-4-[1-amino-2-(3,3-difluoro-pyrrolidin-1-yl)-2-oxo-ethyl]-cyclohexylcarbamoyl}-methyl)-methyl-carbamic acid benzyl ester], the pIC50 is no less than 7.00.

With `N[C@H](C(=O)N1CC[C@@H](F)C1)[C@H]1CC[C@H](NC(=O)c2cncc(O)n2)CC1` [Example 53, 6-Hydroxy-pyrazine-2-carboxylic acid {trans-4-[(1S)-1-Amino-2-((3R)-3-fluoro-pyrrolidin-1-yl)-2-oxo-ethyl]-cyclohexyl}-amide], the pIC50 was no less than 7.00.

Still in this experiment, the particulars now being: hydrochloride salts; Gly-Pro-4-methoxy B naphthylamide substrate; overnight at 37° C.; read-out: IC50 (concentration of test compound required for 50% inhibition), bound given in μM.
Take `N[C@H](C(=O)N1CCCC1)[C@H]1CC[C@@H](NC(=O)[C@@H]2CNC(=O)N2C(=O)OCc2ccccc2)CC1` [Example 7, (5S)-5-[cis-4-((1S)-1-amino-2-oxo-2-pyrrolidin-1-yl-ethyl)-cyclohexylcarbamoyl]-2-oxo-imidazolidine-1-carboxylic acid benzyl ester]: the IC50 was no more than 1 µM.

Consider `N[C@H](C(=O)N1CCCC1)[C@H]1CC[C@@H](NC(=O)[C@@H]2COCN2C(=O)OCc2ccccc2)CC1` [Example 6, (4S)-4-[cis-4-((1S)-1-amino-2-oxo-2-pyrrolidin-1-yl-ethyl)-cyclohexylcarbamoyl]-oxazolidine-3-carboxylic acid benzyl ester], for which the IC50 was no more than 1 µM.

The values above are taken from patent US20050234065A1, “Dipeptidyl peptidase-IV inhibitors” (Pfizer Inc, priority 2004, published 2005).
